# Experimental data as given in US9889146B2, “Benzoxaborole compounds and uses thereof” (priority 2012, dated 2018).
# Read-outs that look alike come from different tables or passages of the source.
# Assays:
# Proteus vulgaris (WT) = experiment: microbe, parasite or virus in culture; format: cell-based; conditions: Proteus vulgaris (WT), 41 isolates; read-out: MIC90
# [1] = test system: Enterobacter aerogenes (WT); experiment: microbe, parasite or virus in culture; format: cell-based; conditions: Klebsiella aerogenes; Enterobacter aerogenes (WT), 199 isolates; read-out: MIC90
# Klebsiella spp. (KPC) = experiment: microbe, parasite or virus in culture; format: cell-based; conditions: Klebsiella
# [2] = test system: Enterobacter cloacae (WT); experiment: microbe, parasite or virus in culture; format: cell-based; conditions: 202 isolates, read-out: MIC90
# E. coli (ESBL) = experiment: microbe, parasite or virus in culture; format: cell-based; conditions: Escherichia coli
# K. pneumoniae = conditions: up regulation of an AcrAB efflux pump; Ruzin et al. AAC 2005; cited from earlier work
# Klebsiella spp. (ESBL) = experiment: microbe, parasite or virus in culture; format: cell-based; conditions: Klebsiella
# Klebsiella spp. (WT) = experiment: microbe, parasite or virus in culture; format: cell-based; conditions: Klebsiella spp. (WT), 159 isolates; read-out: MIC90
# E. coli (WT) = experiment: microbe, parasite or virus in culture; format: cell-based; conditions: Escherichia coli; E. coli (WT), 214 isolates; read-out: MIC90
# S. marcescens (AmpC) = experiment: microbe, parasite or virus in culture; format: cell-based; conditions: Serratia marcescens
# [3] = test system: Morganella morganii (AmpC); experiment: microbe, parasite or virus in culture; format: cell-based; conditions: Morganella morganii
# [4] = test system: Citrobacter freundii (AmpC); experiment: microbe, parasite or virus in culture; format: cell-based; conditions: Citrobacter freundii
# Enterobacteriaceae = experiment: organism not typed; format: cell-based; conditions: Enterobacteriaceae, 2029 isolates; read-out: MIC90
# [5] = test system: Enterobacter aerogenes (AmpC); experiment: microbe, parasite or virus in culture; format: cell-based; conditions: Klebsiella aerogenes
# Proteus mirabilis (WT) = experiment: microbe, parasite or virus in culture; format: cell-based; conditions: Proteus mirabilis (WT), 235 isolates; read-out: MIC90
# Providencia spp.(all) = experiment: microbe, parasite or virus in culture; format: cell-based; conditions: Providencia spp.(all), 68 isolates; read-out: MIC90
# [6] = test system: Enterobacter cloacae (AmpC); experiment: microbe, parasite or virus in culture; format: cell-based; conditions: Enterobacter cloacae
# [7] = test system: P. aeruginosa ATCC 27853 wild type and mutants; experiment: MIC, wild type and GSK2251052 resistant mutants; format: cell-based; conditions: Pseudomonas aeruginosa
# Summary of the method: (§1)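 MICs were determined following CLSI M7-A7 recommendations for aerobic bacteria. Strains were E. coli ATCC 25922, K. pneumoniae ATCC 13883, P. aeruginosa ATCC 27853 and six to ten laboratory-selected GSK2251052-resistant colonies of each, carrying mutations in the LeuRS editing domain.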
# [8] = test system: K. pneumoniae ATCC 13883 wild type and mutants; experiment: MIC, wild type and GSK2251052 resistant mutants; format: cell-based; conditions: Klebsiella pneumoniae
# Summary of the method: as §1
# [9] = test system: E. coli ATCC 25922 wild type and mutants; experiment: MIC, wild type and GSK2251052 resistant mutants; format: cell-based; conditions: Escherichia coli
# Summary of the method: as §1
# P. aeruginosa ATCC 27853 = experiment: Spontaneous frequency of resistance; format: cell-based; conditions: 24 h
# Protocol: (§2) Spontaneous Resistance Frequency was determined in vitro for GSK2251052 and the resistance mutants in E. coli ATCC 25922, K. pneumoniae ATCC 13883, and P. aeruginosa ATCC 27853 strains were characterized. GSK2251052 was prepared as described in U.S. Pat. No. 7,816,344 (the entire contents of which are hereby incorporated by reference herein). LB broth, Mueller Hinton II broth (adjusted), and Difco noble agar were obtained from Becton Dickinson (Cockeysville, Md., USA). M9 minimal broth containing 1×M9 salt, 0.5 μg/ML thiamine, 1 mM MgSO4, 0.1 mM CaCl2, 2% glucose, was obtained from Teknova (Hollister, Calif., USA). Antibacterial agents ciprofloxacin, ceftazidime, chloramphenicol, gentamycin, kanamycin, polymixin B, tobramycin and trimethoprim, and amino acids were obtained from Sigma Chemicals (St. Louis, Mo., USA). Strains were obtained from ATCC (Manassas, Va., USA).
# (§3) Selection of resistance to GSK2251052 was attempted by spreading various amounts of bacteria onto MHBII noble agar plates containing 4×MIC (minimum inhibitory concentration) or 10×MIC of GSK2251052. Colonies were counted after 24 hours and 48 hours incubation at 37° C. The resistance of these colonies was confirmed by their ability to grow on plates containing GSK2251052 at either 4× or 10×MIC. Frequency of resistance was determined by dividing the number of resistant mutants by the total number of cells plated as determined by plating dilutions of the overnight culture on LB plates.
# E. coli ATCC 25922 = experiment: Spontaneous frequency of resistance; format: cell-based; conditions: 24 h
# Protocol: as §2, §3
# K. pneumoniae ATCC 13883 = experiment: Spontaneous frequency of resistance; format: cell-based; conditions: 24 h
# Protocol: as §2, §3
# [10] = test system: E. coli ATCC 25922, K. pneumoniae ATCC 13883 and P. aeruginosa ATCC 27853; experiment: MIC, three strains and their mutants summarised; format: cell-based; conditions: MIC in E. coli, P. aeruginosa and K. pneumoniae mutants versus wild-type
# Protocol: as §2
# Susceptibility tests were performed following the recommendations for aerobic bacteria (M7-A7) from the Clinical and Laboratories Standards Institute (CLSI).
# Laboratory generated mutants resistant to GSK2251052 contain mutations in the editing domain of LeuRS. Six to ten GSK2251052 resistant colonies of E. coli ATCC 25922, K. pneumoniae ATCC 13883 and P. aeruginosa ATCC 27853 were selected for further analysis and their MICs to GSK2251052 were determined (Table 4-7).
# GSK2251052 resistant mutants were not cross-resistant to commercial antibiotics.
# P. aeruginosa = experiment: In vitro activity against P. aeruginosa clinical isolates; format: cell-based; conditions: P. aeruginosa, 2,008 clinical isolates; GSK2251052 based on potential susceptible breakpoint of ≦4 μg/mL
# Protocol: GSK2251052 was tested for activity against P. aeruginosa, and its activity was compared to other antibiotics of known activity. The results are shown below in Tables 2a and 2b. Of 2,008 clinical isolates tested (from 2009-2010 subjects, of which 40% were from North America) greater than 90% were susceptible to GSK2251052 based on a potential susceptible breakpoint of ≦4 μg/mL.
smiles,measurement,setting,value
CN(C)c1cc(NC(=O)CNC(C)(C)C)c(O)c2c1C[C@H]1C[C@H]3[C@H](N(C)C)C(O)=C(C(N)=O)C(=O)[C@@]3(O)C(O)=C1C2=O [Tigecycline],MIC90,Proteus vulgaris (WT),2 µg/mL
same,MIC90,[1],0.5 µg/mL
same,MIC90,Klebsiella spp. (KPC),2 µg/mL
same,MIC90,[2],0.5 µg/mL
same,MIC90,E. coli (ESBL),0.5 µg/mL
same,phenotype of resistant mutants,K. pneumoniae,multidrug-resistant
same,MIC90,Klebsiella spp. (ESBL),2 µg/mL
same,MIC90,Klebsiella spp. (WT),1 µg/mL
same,MIC90,E. coli (WT),0.25 µg/mL
same,MIC90,S. marcescens (AmpC),2 µg/mL
same,MIC90,[3],4 µg/mL
same,MIC90,[4],2 µg/mL
same,MIC90,Enterobacteriaceae,2 µg/mL
same,MIC90,[5],2 µg/mL
same,MIC90,Proteus mirabilis (WT),4 µg/mL
same,MIC90,Providencia spp.(all),4 µg/mL
same,MIC90,[6],4 µg/mL
CC(C)(O/N=C(\C(=O)N[C@@H]1C(=O)N2C(C(=O)[O-])=C(C[n+]3ccccc3)CS[C@H]12)c1csc(N)n1)C(=O)O [Ceftazidime],MIC90,Proteus vulgaris (WT),≤ 1 µg/mL
same,MIC,"[7]; ATCC27853, P wt., read-out: MICs",2 µg/mL
same,MIC,"[7]; ATCC27853, read-out: MICs, mutant P 101",4 µg/mL
same,MIC,"[7]; ATCC27853, read-out: MICs, mutant P106",2 µg/mL
same,MIC,"[7]; ATCC27853, read-out: MICs, mutant P108",2 µg/mL
same,MIC,"[8]; ATCC13883, K wt., read-out: MICs",0.5 µg/mL
same,MIC,"[8]; ATCC13883, read-out: MICs, mutant K 104",0.5 µg/mL
same,MIC,"[8]; ATCC13883, read-out: MICs, mutant K 105",0.5 µg/mL
same,MIC,"[8]; ATCC13883, read-out: MICs, mutant K 107",0.5 µg/mL
same,MIC,"[8]; ATCC13883, read-out: MICs, mutant K 108",1 µg/mL
same,MIC,"[8]; ATCC13883, read-out: MICs, mutant K 110",0.5 µg/mL
same,MIC,"[9]; ATCC25922, E wt, read-out: MICs",0.5 µg/mL
same,MIC,"[9]; ATCC25922, read-out: MICs, mutant E 101",0.5 µg/mL
same,MIC,"[9]; ATCC25922, read-out: MICs, mutant E 102",0.5 µg/mL
same,MIC,"[9]; ATCC25922, read-out: MICs, mutant E 107",0.5 µg/mL
same,Frequency of Resistance,P. aeruginosa ATCC 27853; 4 X MIC,2 × 10^−7
same,Frequency of Resistance,P. aeruginosa ATCC 27853; 10 X MIC,2 × 10^−8
same,Frequency of Resistance,E. coli ATCC 25922; 4 X MIC,<3 × 10^−9
same,Frequency of Resistance,E. coli ATCC 25922; 10 X MIC,<3 × 10^−9
same,Frequency of Resistance,K. pneumoniae ATCC 13883; 4 X MIC,1 × 10^−8
same,Frequency of Resistance,K. pneumoniae ATCC 13883; 10 X MIC,<4 × 10^−9
same,MIC90,[1],≤ 1 µg/mL
same,MIC90,Klebsiella spp. (KPC),> 16 µg/mL
same,MIC90,[2],≤ 1 µg/mL
same,MIC90,E. coli (ESBL),> 16 µg/mL
same,MIC90,Klebsiella spp. (ESBL),> 16 µg/mL
same,cross-resistance of GSK2251052 resistant mutants,[10],did not have any significant difference in MIC values than wild-type
same,MIC90,Klebsiella spp. (WT),≤ 1 µg/mL
same,MIC90,E. coli (WT),≤ 1 µg/mL
same,MIC90,S. marcescens (AmpC),> 16 µg/mL
same,MIC90,[3],> 16 µg/mL
same,MIC90,[4],> 16 µg/mL
same,MIC90,Enterobacteriaceae,> 16 µg/mL
same,MIC90,[5],> 16 µg/mL
same,% susceptible,P. aeruginosa,66.4%
same,MIC90,Proteus mirabilis (WT),≤ 1 µg/mL
same,MIC90,Providencia spp.(all),8 µg/mL
same,MIC90,[6],> 16 µg/mL
